# Reference: patent publication EP0019589A1, “Tripeptide derivatives and their use in a process for determining enzymes” (Pentapharm A.G., priority 1979, dated 1980)
# Non-standard residues stand in square brackets, D forms with d. Residues, ends and D or L forms follow the SMILES beside them. *: point of attachment. Cha = N[C@@H](CC1CCCCC1)C(=O)O; dChg = N[C@@H](C(=O)O)C1CCCCC1; dPhg = N[C@@H](C(=O)O)c1ccccc1; pNA = O=[N+]([O-])c1ccc(N*)cc1; Chg = N[C@H](C(=O)O)C1CCCCC1; dNle = CCCC[C@@H](N)C(=O)O; dNva = CCC[C@@H](N)C(=O)O; dAbu = CC[C@@H](N)C(=O)O
# Columns and labels:
# Type in all cases: biochemical
# [1] = target: T1, Submandibularis-Kallikrein (Homo sapiens, UniProt P06870); assay: Cleavage of chromogenic substrate by submandibular (glandular) kallikrein in human sputum; details: 1 ml human sputum, per min; Substratkonzentration 2 x 10^-4 molar
# T1 construct: Man mischt 0,5 ml Sputum mit 2 ml TRIS-Imidazol-Puffer; from tissue; host or cells: human sputum
# Method in brief: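 Sputum mixed with TRIS-imidazole buffer (ionic strength 1.0), preincubated 5 min at 37°C and centrifuged; supernatant incubated with aqueous substrate solution (2 x 10^-3 M, stock). p-Nitroaniline release followed continuously at 405 nm for 5-10 min; activity expressed as mU per ml sputum from ΔOD/min.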
# Humanthrombin = target: T2, Humanthrombin (Homo sapiens, UniProt P00734); assay: Cleavage of chromogenic substrate by human NIH thrombin; details: 1 NIH-Einheit human thrombin, per min; Substratkonzentration 2 x 10^-4 molar
# T2 construct: Humanplasmin und hu-manem NIH-Thrombin
# Method in brief: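 Thrombin hydrolysis of chromogenic p-nitroanilide substrate read spectrophotometrically at 405 nm; fluorogenic naphthylamine, methylcoumarylamine or di(methoxycarbonyl)phenylamine substrates read continuously by fluorescence emission at 400-470 nm. Activity taken as product formed per unit time; 1 µmol product/min defined as 1 enzyme unit for a given substrate.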
# Urinkallikrein = target: T3, Urinkallikrein (Homo sapiens, UniProt P06870); assay: Cleavage of chromogenic substrate by urinary kallikrein in human urine; details: 1 ml human urine (pooled morning urine of healthy persons), per min; Substratkonzentration 2 x 10^-4 molar
# T3 construct: 1 ml Urin und 1 ml TRIS-Imidazol-Puffer mit pH 7,9; from tissue; host or cells: human urine
# Humanplasmin = target: T4, Humanplasmin (Homo sapiens, UniProt P00747); assay: Cleavage of chromogenic substrate by human plasmin; details: 1 CU-Einheit human plasmin, per min; Substratkonzentration 2 x 10^-4 molar
# T4 construct: da bei der Aktivierung aus 1 Molekül Plasminogen 1 Molekül Plasmin entsteht
# T4 sequence (P00747 581-810 limits assumed): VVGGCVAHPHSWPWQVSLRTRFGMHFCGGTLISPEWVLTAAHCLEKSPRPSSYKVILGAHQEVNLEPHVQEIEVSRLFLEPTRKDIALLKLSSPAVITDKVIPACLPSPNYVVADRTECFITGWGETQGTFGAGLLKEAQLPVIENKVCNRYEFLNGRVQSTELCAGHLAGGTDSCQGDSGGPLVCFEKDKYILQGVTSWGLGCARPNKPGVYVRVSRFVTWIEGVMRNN
# T4 sequence (P00747 97-580 partner limits assumed): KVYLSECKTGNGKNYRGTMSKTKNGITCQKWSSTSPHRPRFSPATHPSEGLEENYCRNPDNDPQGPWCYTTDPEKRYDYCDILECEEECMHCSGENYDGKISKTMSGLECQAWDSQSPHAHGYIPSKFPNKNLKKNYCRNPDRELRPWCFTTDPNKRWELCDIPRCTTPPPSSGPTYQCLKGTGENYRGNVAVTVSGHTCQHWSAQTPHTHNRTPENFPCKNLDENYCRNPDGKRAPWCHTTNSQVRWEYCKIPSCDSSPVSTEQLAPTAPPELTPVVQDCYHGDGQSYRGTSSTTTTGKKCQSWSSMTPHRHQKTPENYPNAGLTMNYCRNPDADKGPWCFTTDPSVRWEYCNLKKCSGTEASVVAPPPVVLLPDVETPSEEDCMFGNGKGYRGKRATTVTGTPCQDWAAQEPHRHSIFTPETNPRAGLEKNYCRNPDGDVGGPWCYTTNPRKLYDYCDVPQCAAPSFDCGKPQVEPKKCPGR
# T1 sequence (P06870 25-262): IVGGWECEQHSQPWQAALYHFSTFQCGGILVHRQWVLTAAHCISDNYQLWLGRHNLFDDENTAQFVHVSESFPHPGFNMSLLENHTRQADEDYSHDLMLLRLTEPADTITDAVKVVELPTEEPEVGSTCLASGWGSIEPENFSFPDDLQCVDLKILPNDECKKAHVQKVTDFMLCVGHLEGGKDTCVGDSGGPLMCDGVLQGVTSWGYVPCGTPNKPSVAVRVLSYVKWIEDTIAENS
# T3 sequence (P06870 25-262): as above
SMILES,Menge des durch 1 ml Humansputum pro Min. freigesetzten Spaltproduktes R-NH2 in Nanomol (Submandibularis-Kallikrein) [1],Menge des durch 1 NIH-Einheit Thrombin pro Min. freigesetzten Spaltproduktes R-NH2 in Nanomol (Humanthrombin) (Humanthrombin),Menge des durch 1 ml Humanurin pro Min. freigesetzten Spaltproduktes R-NH2 in Nanomol (Urinkallikrein) (Urinkallikrein),Menge des durch 1 CU-Einheit Humanplasmin pro Min. freigesetzten Spaltproduktes R-NH2 in Nanomol (Humanplasmin) (Humanplasmin) [Nanomol]
"CC(C)[C@@H](N)C(=O)N[C@H](C(=O)N[C@@H](CCCCN)C(=O)Nc1ccc([N+](=O)[O-])cc1)C1CCCCC1 [Beispiel 30, 2AcOH.H-D-Val-CHG-Lys-pNA] (H-[dV]-[Chg]-Lys-pNA)","1,3 Nanomol","0,27 Nanomol",0 Nanomol,61
"NCCCC[C@H](NC(=O)[C@@H]1CCCN1C(=O)[C@H](N)C1CCCCC1)C(=O)Nc1ccc([N+](=O)[O-])cc1 [Beispiel 31, 2AcOH.H-D-CHG-Pro-Lys-pNA] (H-[dChg]-Pro-Lys-pNA)","1,9 Nanomol","3,78 Nanomol",0 Nanomol,231
"NCCCC[C@H](NC(=O)[C@@H]1CCCN1C(=O)[C@H](N)CC1CCC(O)CC1)C(=O)Nc1ccc([N+](=O)[O-])cc1 (stereo partly drawn) [Beispiel 32, 2AcOH.H-D-CHT-Pro-Lys-pNA]","3,8 Nanomol","0,8 Nanomol","0,20 Nanomol",613
"NCCCC[C@H](NC(=O)[C@H](CC1CCCCC1)NC(=O)[C@H](N)c1ccccc1)C(=O)Nc1ccc([N+](=O)[O-])cc1 [Beispiel 33, 2AcOH.H-D-Ph'Gly-CHA-Lys-pNA] (H-[dPhg]-[Cha]-Lys-pNA)","0,9 Nanomol","0,4 Nanomol","0,10 Nanomol",837
"CC(C)[C@@H](N)C(=O)N[C@@H](CC1CCC(O)CC1)C(=O)N[C@@H](CCCCN)C(=O)Nc1ccc([N+](=O)[O-])cc1 (stereo partly drawn) [Beispiel 34, 2AcOH.H-D-Val-CHT-Lys-pNA]","16,5 Nanomol","0,4 Nanomol","1,40 Nanomol",532
"NCCCC[C@H](NC(=O)[C@H](CC1CCC(O)CC1)NC(=O)[C@H](N)c1ccccc1)C(=O)Nc1ccc([N+](=O)[O-])cc1 (stereo partly drawn) [Beispiel 35, 2AcOH.H-D-Ph'Gly-CHT-Lys-pNA]","0,9 Nanomol","0,5 Nanomol","0,10 Nanomol",894
"CC(C)C[C@@H](N)C(=O)N[C@@H](CC1CCCCC1)C(=O)N[C@@H](CCCNC(=N)N)C(=O)Nc1ccc([N+](=O)[O-])cc1 [Beispiel 36, 2HBr.H-D-Leu-CHA-Arg-pNA] (H-[dL]-[Cha]-Arg-pNA)","35,9 Nanomol","6,8 Nanomol","3,11 Nanomol",1069
"CCCC[C@@H](N)C(=O)N[C@@H](CC1CCCCC1)C(=O)N[C@@H](CCCNC(=N)N)C(=O)Nc1ccc([N+](=O)[O-])cc1 [Beispiel 37, 2HBr.H-D-Nleu-CHA-Arg-pNA] (H-[dNle]-[Cha]-Arg-pNA)","28,1 Nanomol","7,3 Nanomol","2,08 Nanomol",1179
"CCC[C@@H](N)C(=O)N[C@@H](CC1CCCCC1)C(=O)N[C@@H](CCCNC(=N)N)C(=O)Nc1ccc([N+](=O)[O-])cc1 [Beispiel 38, 2HBr.H-D-Nval-CHA-Arg-pNA] (H-[dNva]-[Cha]-Arg-pNA)","41,3 Nanomol","5,1 Nanomol","3,12 Nanomol",969
"N=C(N)NCCC[C@H](NC(=O)[C@H](CC1CCCCC1)NC(=O)[C@H](N)Cc1ccccc1)C(=O)Nc1ccc([N+](=O)[O-])cc1 [Beispiel 39, 2HBr.H-D-Phe-CHA-Arg-pNA] (H-[dF]-[Cha]-Arg-pNA)","28,5 Nanomol","3,9 Nanomol","2,14 Nanomol",814
"C[C@@H](N)C(=O)N[C@@H](CC1CCCCC1)C(=O)N[C@@H](CCCNC(=N)N)C(=O)Nc1ccc([N+](=O)[O-])cc1 [Beispiel 40, 2HBr.H-D-Ala-CHA-Arg-pNA] (H-[dA]-[Cha]-Arg-pNA)","22,4 Nanomol","1,5 Nanomol","1,73 Nanomol",433
"CC[C@@H](N)C(=O)N[C@@H](CC1CCCCC1)C(=O)N[C@@H](CCCNC(=N)N)C(=O)Nc1ccc([N+](=O)[O-])cc1 [Beispiel 41, 2HBr.H-D-But-CHA-Arg-pNA] (H-[dAbu]-[Cha]-Arg-pNA)","31,2 Nanomol","2,8 Nanomol","2,99 Nanomol",623
